Results on three substances are retold here after patent US20240082342A1, “PEPTIDE THERAPEUTICS FOR INCREASING LUNG CELL VIABILITY” (BOARD OF REGENTS, THE UNIVERSITY OF TEXAS SYSTEM, priority 2018, published 2024).

Entries after “also recorded” stand apart in the source; their conditions may differ.

In one experiment the test system is human COPD lung tissues. The experiment is described as follows: Human COPD lung tissues treated ex vivo for 72 h. The format is cell-based. The conditions noted are these: for active caspase-3 in AT2 cells isolated from treated tissue: COPD tissue ex vivo. On the procedure: Lung tissues from control subjects and patients with COPD were treated with or without CSP7 for 72 h ex vivo or in vitro. Lung homogenates were analyzed for immunoblot and Real time PCR.
Treatment of human lung tissues with CSP7 ex vivo. For ex vivo studies, de-identified human COPD lung tissues and histologically “normal” lung (nL) tissues were obtained from transplant recipients and from the Gift of Life Donor Program (www.donors1.org) from Temple University, Philadelphia, PA, USA.
Ex vivo studies using human lung tissues without patient identity was approved by the Institutional (UTHSCT) Review Board (IRB) through exempt protocol #12-003. nL and COPD tissues (n=4-5) were treated with or without CSP7 for 72 h ex vivo as described previously (Marudamuthu et al, 2019). Total protein and RNA extracted from the lung tissues were analyzed by Western blotting and qPCR for MUC5AC protein and mRNA, respectively. In separate experiments, AT2 cells isolated from nL and COPD lungs were treated with CSP7 or CP and immunoblotted for changes in senescence or apoptosis, p53, PAI-1 and SP-C expression. Similarly, nL and COPD tissues were treated with or without CSP7 or CP for 72 h ex vivo and AT2 cells isolated from these tissues were analyzed for senescence or apoptosis, p53, PAI-1 and SP-C.

Another experiment relates to WT mice exposed to PTS. The experiment is described as follows: Passive tobacco smoke (PTS) exposed WT mice treated IP with CSP or CSP7 once a week. The format is in vivo, mouse. The note with it: for p53, PAI-1 expression and apoptosis in A2Cs/A2ECs: PTS (or IL-17A) exposure; for pulmonary influx of CD4- and CD8-positive T cells, macrophages and neutrophils: PTS exposed mice. The procedure: Four weeks after initiation of PTS exposure, the WT mice were administered an intraperitoneal injection of vehicle or CSP (18.75 mg/kg body wt) or control peptide (CP) once a week for the next 4 weeks. Exposure to PTS was continued for another 12 weeks. BAL fluid and lysates (CL) from A2ECs isolated from PTS exposed WT mice treated with vehicle, CSP or CP were immunoblotted for p53 and PAI-1 and activation of caspase-3. -β-actin was tested for similar loading. […] The process involves inhibition of p53-induced PAI-1 expression.
FIGS. 57A-57C show inhibition of PTS-induced IL-17A by CSP in WT mice. Four weeks after initiation of PTS exposure as in FIG. 56, the WT mice were administered an intraperitoneal (IP) injection of vehicle or CSP (18.75 mg/kg body wt) or control peptide (CP) once a week for the next 4 weeks. Exposure to PTS was continued for another 12 weeks. Lung sections (A), lung homogenates (B) and total RNA (C) were analyzed for IL-17A and IL-17R mRNA expression by qRT-PCR.
FIGS. 60A-60B show inhibition of PTS-induced p53^AC, p53^S15 and p53, PAI-1, apoptosis and senescence by CSP7 in WT mice. Four weeks after initiation of PTS exposure as in FIG. 56, the WT mice were IP injected with vehicle or CSP7 or CP once a week for the next 4 weeks. Exposure to PTS was continued for another 12 weeks. (A) Lung sections were subjected IHC analysis for p53 and PAI-1. (B) A2ECs isolated from the lungs of these mice were immunoblotted for above mentioned proteins.
Wild-type (WT) and p53- and PAI-1-deficient mice of C57BL/6 background were bred in the inventor's facilities or were purchased from Jackson Laboratories. These mice were exposed to passive TSE from 40 research cigarettes over a 2 hour period 5 days/week for 20 weeks (^˜90 mg/m3 total solid particulates) by using a mechanical smoking chamber (Teague Enterprises, Davis, CA). Control mice were exposed to ambient air. Four weeks after initiation of passive TSE exposure, the mice were administered an intraperitoneal injection of CSP7 or scrambled control peptide (CP) (18.75 mg/kg body wt) once a week for 4 weeks (Marudamuthu et al. Am J Pathol 185: 55-68, 2015); Tiwari et al., supra). Mice were killed, and their lungs were used for further analyses (Bhandary et al., supra).

The next experiment has as its target T1, PP2A (Mus musculus, UniProt P63330).
T1 construct: from tissue; host or cells: lung homogenates of WT C57BL/6J mice
The experiment is described as follows: PP2A activity assay in lung homogenates of CS exposed WT mice. The format is in vivo. The conditions noted are these: WT mice with CS-LI, Neb or IP, 4 weeks. On the procedure:
PP2A Activity Determination and PP2A Inhibitors PP2A activity was determined using the Millipore PP2A activity assay (17-313; Millipore) (Nath S, et al., Am J Respir Cell Mol Biol. 59:695-705, 2018 December).
Determination of protein phosphatase 2A (PP2A) activity. PP2A activity was determined in isolated AECs and lung homogenates using the PP2A activity assay kit (Millipore) (Nath et al, Am J Respir Cell Mol Biol 59:695-705, 2018. doi: 10.1165/rcmb.2018-01730C.)

T1 sequence (P63330 whole entry): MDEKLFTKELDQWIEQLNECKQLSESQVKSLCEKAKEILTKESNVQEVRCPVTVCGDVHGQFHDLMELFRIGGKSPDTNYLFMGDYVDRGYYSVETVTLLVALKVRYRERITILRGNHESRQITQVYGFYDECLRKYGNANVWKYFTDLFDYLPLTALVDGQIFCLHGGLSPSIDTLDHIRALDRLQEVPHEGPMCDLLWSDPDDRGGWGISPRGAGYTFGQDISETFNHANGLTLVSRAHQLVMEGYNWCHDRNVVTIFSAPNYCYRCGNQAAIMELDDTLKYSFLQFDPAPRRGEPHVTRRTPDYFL

Take “DGIWKASFTTFTVTKYWFYR (listed as Homo sapiens) [CSP, 20 residue caveolin-1 scaffolding domain peptide]”: the “MUC5AC, HDAC6, SPDEF, Ac-Tubulin, FOXA2 and other MCM markers (Western blot)” value in the experiment with human COPD lung tissues (COPD tissue, 10 μM, 72 h) is reported as “reverse”. In the experiment with WT mice exposed to PTS, the “p53, PAI-1 expression and apoptosis in A2Cs/A2ECs” value is reported as “mitigates A2EC apoptosis”; the “pulmonary influx of CD4- and CD8-positive T cells, macrophages and neutrophils” value was “inhibits pulmonary influx of CD4- and CD8-positive T cells, macrophages and neutrophils”. Also, in the experiment with WT mice exposed to PTS (WT mice, 20 weeks PTS), the “lung inflammation, pulmonary PMN accumulation (MPO)” value was “significantly suppresses lung inflammation” and the “lung volume (micro-CT)” value was “significantly reduced; also recorded: reduced lung volumes”. Also, in the experiment with WT mice exposed to PTS (WT mice, PTS), the “Cav1 binding with PP2Ac in A2ECs” value is reported as “inhibited the PTS-induced binding of Cav1 with PP2Ac”; the “Cav1 expression in A2ECs” value is “without affecting Cav1 expression; also recorded: without inhibiting PTS-induced Cav1”; the “PTS-induced IL-17A (and IL-17R) in the lungs” value is “inhibits PTS-induced accumulation of IL-17A in the lungs; also recorded: significantly inhibited PTS-induced IL-17A and IL-17R levels”; the “acetylated p53, serine-15 phosphorylated p53, total p53 and Sirt1 in A2ECs” value (from here on “acetylated p53”) is “blocked ^p15Sp53; also recorded: inhibits acetylation; also recorded: restoration of Sirt1; also recorded: reduced p53^AC, p53^S15 and total p53 levels, and restored baseline Sirt1 expression”. Further, in the experiment with WT mice exposed to PTS (WT mice, PTS), the “miR-34a expression in A2ECs” value is “suppression of miR-34a expression; also recorded: significantly inhibited”.

Regarding “FTTFTVT (listed as Homo sapiens) [CSP7, heptapeptide fragment of the caveolin-1 scaffolding domain peptide CSP]”, in the experiment with human COPD lung tissues (COPD tissue), the “PP2A and CIP2A mRNA” value is listed as “significantly reversed”. In addition, the “active caspase-3 in AT2 cells isolated from treated tissue” value with human COPD lung tissues is given as “reduced active caspase-3”. Further, in the experiment on human COPD lung tissues (COPD tissue, 10 μM, 72 h), the “MUC5AC, HDAC6, FOXA3, CAV1 and FOXA2 mRNA” value was “parallel inhibition of MUC5AC, HDAC6, FOXA3 and CAV1 mRNA with an increase in FOXA2 mRNA”; the “MUC5AC, HDAC6, SPDEF, Ac-Tubulin, FOXA2 and other MCM markers (Western blot)” value was “reverse; also recorded: reduced MUC5AC and other MCM markers”; the “baseline CAV1, p53 and PAI-1” value was “suppression of baseline CAV1, p53, and PAI-1”. In addition, the “p53 and SP-C in AT2 cells isolated from treated tissue” value in the experiment on human COPD lung tissues (COPD tissue, 72 h ex vivo) was “reduction in p53 while restoring baseline SP-C expression”. The “effect in nL tissues” value with human COPD lung tissues (normal lung tissue ex vivo) was “minimal effect”. Also, in the experiment with PP2A, the “PP2A activity / signaling” value is “reversed by CSP7; also recorded: improved PP2A activity”. In addition, in the experiment on WT mice exposed to PTS, the “p53, PAI-1 expression and apoptosis in A2Cs/A2ECs” value is “inhibited PTS or IL-17A exposure induced p53”; the “pulmonary influx of CD4- and CD8-positive T cells, macrophages and neutrophils” value is “inhibits pulmonary influx of CD4- and CD8-positive T cells, macrophages and neutrophils; also recorded: reversed”. For the same substance, in the experiment on WT mice exposed to PTS (WT mice, 20 weeks PTS), the “PAI-1, p53^AC, p53^S15, cleaved Caspase-3 and beta-galactosidase in lung sections and A2ECs” value was “markedly reduced”; the “lung volume (micro-CT)” value is recorded as “significantly reduced; also recorded: reduced lung volumes”. Further, in the experiment on WT mice exposed to PTS (WT mice, PTS), the “Cav1 expression in A2ECs” value is on record as “without inhibiting PTS-induced Cav1”; the “PTS-induced IL-17A (and IL-17R) in the lungs” value is “inhibits PTS-induced accumulation of IL-17A in the lungs”; the “acetylated p53” value was “reduced p53^AC, p53^S15 and total p53 levels, and restored baseline Sirt1 expression”; the “miR-34a expression in A2ECs” value was “reduced miR-34a”. In the experiment on WT mice exposed to PTS (injected 4 weeks after initiation of TSE, 20 weeks), the “p53 and PAI-1 in BAL fluids and lung homogenates” value was “significantly suppressed the expression of p53 and PAI-1”.

“WGIDKAFFTTSTVTYKWFRY [CP, scrambled control peptide with the same amino acid composition as CSP, reference compound]”: the “active caspase-3 in AT2 cells isolated from treated tissue” value in the experiment on human COPD lung tissues is recorded as “otherwise increased”. Besides, the “MUC5AC, HDAC6, FOXA3, CAV1 and FOXA2 mRNA” value in the experiment on human COPD lung tissues (COPD tissue, 10 μM, 72 h) is listed as “failed to respond”. Moreover, the “PP2A activity / signaling” value with PP2A is “still showed loss of PP2A activity”. Moreover, the “acetylated p53” value in the experiment with WT mice exposed to PTS (WT mice, PTS) is “still showed elevated p53^AC, p53^S15, total p53 and PAI-1”.
